The text below walks through data of patent publication US4157396A, “Hydroxamic acid derivatives and medicaments for treatment of urolithiasis and pyelonephrosis comprising such derivatives” (Eisai Co., Ltd., priority 1976, dated 1979).

What is called LD50 is the dose at which mortality reaches 50%.

In data set [1] the test system is Proteus mirabilis OM-1. The experiment in a line: Arrestment action to the calculus formation in the urine. In kind it is cell-based. The note with it: OM1, human urine with Proteus mirabilis OM-1, 24 hours, read-out: Arrest ratio to calculus formation (%), 24 hours; for inhibition at 200 µM: 2×10^-4 M; for inhibition at 1000 µM: 10^-3 M. The method, then:
(§1) Solutions to be examined were prepared by collecting each 18 ml of fresh urine from a normal human, and adding the respective examination compounds to each of the urine to make their concentration of 10^-3 M in one group, and of 2×10^-4 in the other group. On the other hand, same solutions containing no examination compounds were prepared as blanks.
Proteus mirabilis OM-1, a urease-producing bacterium, was inoculated in said solutions, so that the number of the bacteria may amount to 10^6 cell/ml, and cultured at 37° C. After […] and 24 hours of the culture time, pH values of the solutions and amounts by weight of the formed and deposited calculus were measured. The arrestment ratio of calculus formation was calculated from said values.

Data set [2] concerns Proteus mirabilis OM-1. The data set is described as above. Type of data set: cell-based. The note with it: OM1, human urine with Proteus mirabilis OM-1, 8 hours, read-out: Arrest ratio to calculus formation (%), 8 hours; for inhibition at 200 µM: 2×10^-4 M; for inhibition at 1000 µM: 10^-3 M.
Data set [3] relates to Proteus mirabilis OM-1. The experiment in a line: Arrestment action to alkalization of the urine. Type of data set: cell-based. The following applies: normal human urine inoculated with Proteus mirabilis OM-1, 37° C. The protocol: as §1
Proteus mirabilis OM-1, a urease-producing bacterium, was inoculated in said solutions, so that the number of the bacteria may amount to 10^6 cell/ml, and cultured at 37° C. […] The arrestment ratio of calculus formation was calculated from said values.

A short description of data set [4]: Examination of urine (Labstix test paper, amount, pH). In kind it is in vivo, male SD strain rats. More on the design: key to Protein in urine, hours 0-6 / Protein in urine, hours 6-24 / Glucose in urine, hours 0-6 / Glucose in urine, hours 6-24 / Ketone substances in urine, hours 0-6 / Ketone substances in urine, hours 6-24 / Occult blood in urine, hours 0-6 / Occult blood in urine, hours 6-24: (-); (±); (+); (++); (+++). The note with it: 100 mg/Kg oral, male SD rats; for Ketone substances in urine, hours 0-6 / Occult blood in urine, hours 0-6 / Protein in urine, hours 0-6 / Glucose in urine, hours 6-24 / Ketone substances in urine, hours 6-24 / Occult blood in urine, hours 6-24 / Protein in urine, hours 6-24 / Glucose in urine, hours 0-6: Labstix; for Ketone substances in urine, hours 0-6 / Occult blood in urine, hours 0-6 / Protein in urine, hours 0-6: 0-6 hours; for Glucose in urine, hours 6-24 / Ketone substances in urine, hours 6-24 / Occult blood in urine, hours 6-24 / Protein in urine, hours 6-24: 6-24 hours; for Glucose in urine, hours 0-6: first collection period; for Amount and pH value of the urine: compared with the group given no examination compound. The method, then: To 5 male SD strain rats having the body weight of about 280 g in the respective groups, the examination compounds were forcedly and orally administered in a ratio of 100 mg/Kg in each time.
Natural urinations were respectively recovered 6 hours and 6-24 hours from the administration. As for control group wherein no examination compound is administered, natural urination was similarly recovered. Amount and pH value of the recovered urine were measured. Further, qualitative reaction concerning the respective items of protein, glucose, ketone substances, and occult blood in the urine was carried out by using Labstix text paper (manufactured and sold by Ames Company). Judgement was ranked as five levels, that is, (-), (±), (+), (++) and (+++).

A short description of data set [5]: Acute toxicity: remarks on the dissection. In kind it is in vivo, rats of SD strain. The following applies: for Remarks on the dissection, death examples: macroscopic observation at the time of death; for Remarks on the dissection, survivor example: rat, in vivo. The method, then:
(§2) Eight week-old rats of SD strain (body weight: about 230 g for male and about 160 g for female) were used as the subject animals. The examination compounds were forcedly and orally administered in the following dosages, wherein 14 rats (7 male rats and 7 female rats, respectively) were used.
The dissection was performed, for the death examples, at the time of death and, for the survivor example, after killing by discharging the blood when the observation of the general conditions was finished. The organs in the thoracic cavity and the abdominal cavity were closely observed with a macroscopic manner.

Data set [6] has as its target T1, Urease collected and purified from sword beans (Canavalia gladiata) (Canavalia gladiata, UniProt A0AAN9R4W0).
T1 construct: single-chain plant urease, homohexamer by analogy with jack bean urease
Kind of data set: Determination of the urease inhibitory action. The following applies: read-out: 50% inhibitory concentration (M) of urease <I50>. In kind it is biochemical. The method, then:
(i) Determination of the urease inhibitory action
Urease was collected and purified from sword beans (Canavalia gladiata) and mol concentrations of the examination compounds for inhibiting 50% of the activity of the urease were measured by the method of Kobashi et al [Refer to Biochim. Biophys. acta 227, 429-441 (1971)].

Data set [7] can be described thus: Determination of the transfer rate into the urine and calculation of the index. Type of data set: in vivo, male rats of SD strain. The following applies: rat, male SD rats, 100 mg/Kg oral, measured as urease inhibitory action in excreted urine; for dose excreted at 6 h: 0-6 hours; for dose excreted at 24 h: 6-24 hours. The method, then:
(ii) Determination of the transfer rate into the urine
Transfer rates into the urine of the examination compounds were determined according to the method of Kobashi et al [Refer to Biochemistry (Japan) vol. 44, No. 5, pp. 187-204 (1972) and Yakugaku Zasshi vol. 12, pp. 1564-1572 (1973)] by using the male rats of SD strain having the body weight of about 280 g, administering orally each 100 mg/Kg of the compounds, and measuring the urease inhibitory action in the excreted urine within a specified period of time.
(iii) Calculation of the index
The index was calculated from the resulting values of the above examinations (i) and (ii) according to the following equation: [formula] wherein n is chosen appropriately depending on the value of I50.
The value of the index is referred to as a standard of the urease inhibitory power of the administered examination compound in the urine.
It is seen that the larger the value of the index is, the more effectively the examination compounds transfer into the urine with a form having the urease inhibitory action. Results of the determination

A short description of data set [8]: Acute toxicity (LD50), oral. The note with it: rat, in vivo. The text has this: The examination was achieved by orally administering the examination compounds into male rats of SD strain weighing about 230 g, respectively.
Data set [9] can be described thus: Acute toxicity: observation of the general conditions. The note with it: for Number of death examples, Female / Number of death examples, Male: rat, in vivo; for Baited amount: all administration groups. Type of data set: in vivo.
Excerpt: as §2

Setting [10] is: single forced oral dose, SD rats, 7 male and 7 female per dose.
The mark [11] stands for this setting: single forced oral dose, SD rats.

Like-named read-outs stand apart in the source and are kept apart here.

T1 sequence (A0AAN9R4W0 entry or part of it): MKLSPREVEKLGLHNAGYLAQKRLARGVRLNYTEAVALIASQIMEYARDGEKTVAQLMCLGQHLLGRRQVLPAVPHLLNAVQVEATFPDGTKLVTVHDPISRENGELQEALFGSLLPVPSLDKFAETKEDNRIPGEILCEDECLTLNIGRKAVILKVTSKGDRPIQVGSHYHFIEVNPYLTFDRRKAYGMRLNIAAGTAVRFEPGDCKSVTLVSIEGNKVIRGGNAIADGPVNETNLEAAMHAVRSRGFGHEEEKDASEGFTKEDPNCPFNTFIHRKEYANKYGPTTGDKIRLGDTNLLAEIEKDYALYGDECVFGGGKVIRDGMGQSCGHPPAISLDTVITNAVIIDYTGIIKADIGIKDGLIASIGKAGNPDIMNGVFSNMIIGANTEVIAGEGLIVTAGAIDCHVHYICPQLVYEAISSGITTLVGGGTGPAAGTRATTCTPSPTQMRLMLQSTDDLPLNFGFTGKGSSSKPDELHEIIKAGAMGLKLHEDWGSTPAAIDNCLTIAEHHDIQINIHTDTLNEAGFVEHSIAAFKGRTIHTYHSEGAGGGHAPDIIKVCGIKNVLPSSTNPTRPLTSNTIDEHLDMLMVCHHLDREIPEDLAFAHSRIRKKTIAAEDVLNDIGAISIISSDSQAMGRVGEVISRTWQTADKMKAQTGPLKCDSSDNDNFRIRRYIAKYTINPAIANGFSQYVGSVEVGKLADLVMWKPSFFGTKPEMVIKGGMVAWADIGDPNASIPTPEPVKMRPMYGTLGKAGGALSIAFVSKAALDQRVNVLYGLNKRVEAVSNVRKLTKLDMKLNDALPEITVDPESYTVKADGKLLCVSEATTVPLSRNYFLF

Take `COc1ccc(C(=O)NCC(=O)NO)cc1` [Compound A, 2-(para-methoxy-benzamide)-acetohydroxamic acid]: in data set [1], the inhibition at 200 µM was 32 ± 3.4% and the inhibition at 1000 µM was 76.6 ± 6%. Besides, in [2], the inhibition at 200 µM is 99 ± 1% and the inhibition at 1000 µM is 96.2 ± 0.4%. In data set [3] (2×10^-4 M), the “pH value, time 8 hours” value was 6.56±0.02 and the “pH value, time 24 hours” value worked out at 8.38±0.02. Moreover, in data set [3] (10^-3 M), the “pH value, time 0 hour” value is 6.40±0.00; the “pH value, time 8 hours” value is 5.40±0.003; the “pH value, time 24 hours” value was 5.58±0.05. Moreover, in [4], the “Ketone substances in urine, hours 0-6” value is “-”; the “Occult blood in urine, hours 0-6” value is “-”; the “Protein in urine, hours 0-6” value was “+”; the “Glucose in urine, hours 6-24” value is “-”. In [4], the “Ketone substances in urine, hours 6-24” value is “-”; the “Occult blood in urine, hours 6-24” value is reported as “-”; the “Protein in urine, hours 6-24” value was “±”; the “Glucose in urine, hours 0-6” value is “-”. Also, in [4], the “Amount and pH value of the urine” value is given as “there was not found the difference”. Moreover, in [5], the “Remarks on the dissection, death examples” value was “Erosion was observed” and the “Remarks on the dissection, survivor example” value is “No abnormality”. Moreover, the IC50 in [6] came to 1.7e-06 M. In [7], the dose excreted at 6 h was 12% and the dose excreted at 24 h was 0.83%. In [8] (po), the LD50 was over 5000 mg/kg. For the same compound, in data set [9], the “Number of death examples, Female” value is reported as 0/7 and the “Number of death examples, Male” value is reported as 1/7. Further, in data set [9] (setting [10]), the Behaviour result is reported as “No change” and the Symptom result is “No change”. Moreover, the Baited amount entry in data set [9] (setting [11]) was “No change”.

As to `COc1cccc(C(=O)NCC(=O)NO)c1` [Compound B, 2-(meta-methoxy-benzamide)-acetohydroxamic acid], in data set [1], the inhibition at 200 µM is 26.2 ± 5.7% and the inhibition at 1000 µM is 79.1 ± 8.2%. In addition, in [2], the inhibition at 200 µM was 87.5 ± 1.6% and the inhibition at 1000 µM was 82 ± 9.2%. For the same compound, in data set [3] (2×10^-4 M), the “pH value, time 0 hour” value was 6.45±0.01; the “pH value, time 8 hours” value came out at 6.84±0.02; the “pH value, time 24 hours” value worked out at 8.71±0.01. In [3] (10^-3 M), the “pH value, time 0 hour” value turned out to be 6.47±0.01; the “pH value, time 8 hours” value came to 5.41±0.01; the “pH value, time 24 hours” value is 6.52±0.003. In data set [4], the “Ketone substances in urine, hours 0-6” value is listed as “-”; the “Occult blood in urine, hours 0-6” value is “-”; the “Protein in urine, hours 0-6” value is given as “+”; the “Glucose in urine, hours 6-24” value is given as “-”. Besides, in data set [4], the “Ketone substances in urine, hours 6-24” value is given as “-”; the “Occult blood in urine, hours 6-24” value is recorded as “-”; the “Protein in urine, hours 6-24” value was “±”; the “Glucose in urine, hours 0-6” value is “-”. Besides, the “Amount and pH value of the urine” value in data set [4] is on record as “there was not found the difference”. In data set [5], the “Remarks on the dissection, death examples” value was “Erosion was observed” and the “Remarks on the dissection, survivor example” value was “No abnormality”. For the same compound, the IC50 in data set [6] was determined as 1.2e-06 M. In data set [7], the dose excreted at 6 h was 12.3% and the dose excreted at 24 h was 1.5%. The LD50 in data set [8] (po) is over 5000 mg/kg. For the same compound, in data set [9], the “Number of death examples, Female” value was 3/7 and the “Number of death examples, Male” value is recorded as 2/7. In addition, in data set [9] (setting [10]), the Symptom entry is “Hair raising”. Also, in [9] (setting [11]), the Baited amount entry is reported as “No change”.

For `CC(=O)Nc1cccc(C(=O)NCC(=O)NO)c1` [Compound M, 2-(meta-acetylaminobenzamide)-acetohydroxamic acid], in [1], the inhibition at 200 µM was 38.8 ± 8% and the inhibition at 1000 µM was 81.4 ± 5.6%. Moreover, in [2], the inhibition at 200 µM was 80.1 ± 6.7% and the inhibition at 1000 µM was 91.5 ± 5.1%. In data set [3] (2×10^-4 M), the “pH value, time 8 hours” value was found to be 7.96±0.02 and the “pH value, time 24 hours” value is 8.70±0.00. For the same compound, in data set [3] (10^-3 M), the “pH value, time 0 hour” value is 6.78±0.02; the “pH value, time 8 hours” value was found to be 6.79±0.01; the “pH value, time 24 hours” value came to 7.08±0.03. The IC50 in data set [6] amounted to 2e-06 M. In [7], the dose excreted at 6 h was 15% and the dose excreted at 24 h is 0.6%. Also, the LD50 in data set [8] (oral, male SD rats about 230 g) was over 5000 mg/kg.

On to `O=C(CNC(=O)c1ccco1)NO` [Compound R, 2-(2-furoilamino)-acetohydroxamic acid], for which, in data set [1], the inhibition at 200 µM was 28.4 ± 5.1% and the inhibition at 1000 µM is 72.3 ± 8.3%. For the same compound, in data set [2], the inhibition at 200 µM is 85.6 ± 4.7% and the inhibition at 1000 µM is 84.1 ± 5.5%. Also, in data set [3] (2×10^-4 M), the “pH value, time 0 hour” value was 6.44±0.01; the “pH value, time 8 hours” value stood at 6.65±0.02; the “pH value, time 24 hours” value is recorded as 8.52±0.01. In [3] (10^-3 M), the “pH value, time 0 hour” value worked out at 6.46±0.00; the “pH value, time 8 hours” value came out at 5.42±0.01; the “pH value, time 24 hours” value is listed as 6.98±0.02. The IC50 in [6] turned out to be 1.3e-06 M. Further, in [7], the dose excreted at 6 h was 15.5% and the dose excreted at 24 h was 0.68%. The compound also had an LD50 in data set [8] (oral, male SD rats about 230 g) of over 5000 mg/kg.
